Laboratory results taken from ChEMBL document CHEMBL6103673, “Novel 1,6-Naphthridine Compounds as SMARCA2 Inhibitors for Treating Non-small Cell Lung Cancer” (ACS Med Chem Lett, 2025).

Experiment: Inhibition of SMARCA2/SMARCC1/SMARCC2/SMARCB1 (unknown origin) using ATP/nucleosome mix as substrate preincubated for 30 mins followed by substrate addition and measured after 180 mins by ADP-Glo assay
Parameters: species or system Homo sapiens

Cc1ccc(NC(=O)Cc2cc3cc(-c4cccc(N5C[C@@H](C)O[C@@H](C)C5)n4)ccc3cn2)cc1S(C)(=O)=O
IC50: 0.48 nM

C[C@@H]1CN(c2cccc(-c3ccc4cnc(CC(=O)Nc5cccc(S(=O)(=O)C(F)F)c5)cc4n3)n2)C[C@H](C)O1
IC50: 0.45 nM

C[C@@H]1CN(c2cccc(-c3ccc4cnc(CC(=O)N[C@@H]5C[C@H](C)N(S(=O)(=O)C(F)F)C5)cc4c3)n2)C[C@H](C)O1
IC50: 0.33 nM

C[C@@H]1CN(c2cccc(-c3ccc4cnc(CC(=O)N[C@@H]5CN(S(=O)(=O)C(F)F)CC(F)(F)C5)cc4n3)n2)C[C@H](C)O1
IC50: 0.43 nM

C[C@@H]1CN(c2cccc(-c3ccc4cnc(CC(=O)N[C@@H]5CCN(S(=O)(=O)C(F)F)C5)cc4c3)n2)C[C@H](C)O1
IC50: 0.53 nM

C[C@@H]1CN(c2cccc(-c3ccc4cnc(CC(=O)N[C@@H]5C[C@@H](F)CN(S(=O)(=O)C(F)F)C5)cc4n3)n2)C[C@H](C)O1
IC50: 0.5 nM
